The results in this text go back to article PMC4373826, “Antiviral Effect of Methylated Flavonol Isorhamnetin against Influenza” (PLoS ONE, 2015).

Data set [1] has as its system influenza A/PR/8/34 (H1N1). The note with it: post-treatment.
In data set [2] the test system is influenza A/PR/8/34 (H1N1). Kind of data set: microbe, parasite or virus in culture. The note with it: MDCK.
Data set [3] has as its system influenza A/PR/8/34 (H1N1). The class given is cell-based, influenza A virus. The note with it: post-treatment 48 hr.
Data set [4] can be described thus: Cytotoxicity assay (EZ-Cytox) in MDCK cells. As to conditions: dog; MDCK cells, 48 hr. The class given is cell-based, canine. Here is the method:
(§1) To determine the 50% cytotoxic concentration (CC50) for each of the tested flavonoid compounds, MDCK cells were seeded onto 96-well plates (NUNC, Penfield, NY, USA) at a density of 1 × 10^4 cells per well and incubated overnight for 80% confluence. MDCK cells were washed twice with PBS and the culture medium was replaced with medium containing serially diluted flavonoids (concentrations from 10μM up to 300 μM) for 48 hr at 37°C in a 5% CO2atmosphere. After the incubation period, the flavonoid-containing media was replaced with new media containing 10% EZ-Cytox (Daeil Lab Service, Seoul, South Korea), and the cells were incubated in the dark for 3 hr at 37°C in a 5% CO2 atmosphere. The optical density was measured at 480 nm using an x-Mark spectrophotometer (Bio-Rad, Hercules, CA, USA). Cytotoxicity was estimated by comparing the cell survival rate of the flavonoids-treated cells and the DMSO-treated cells with the control (virus-untreated) cells. The control cell values were arbitrarily set as the 100% survival rate. The treated cells values were normalized to the control cell values. The calculation of CC50 was carried out as described in detail in S1 Text.
(§2) The 50% cytotoxic concentration (CC50) was calculated according to the following equation:
(§3) Cytotoxicity (%) = [100-(ODt/ODs)] x100
(§4) ODt: The optical density (OD) of cells treated with the tested flavonoids.
(§5) ODs: The OD of cells treated with the control solvent (0.2 % DMSO).
(§6) After obtaining the results, we calculated the concentration that induces 50% cell death using the following equation:
(§7) (X2 - X1) X (50-Y1) / (Y2 - Y1) + X1. Where, X1 represents the lower concentration used in this experiment, while X2 represents the higher concentration. Y1 represents the mean of the percentage of the viable cells at X1 concentration. On the other hand, Y2 represents the mean of the percentage of the viable cells at X2 concentration.”

Data set [5] deals with influenza A/PR/8/34 (H1N1). In words: in vitro. As to conditions: dog, SI (selective index, CC50/EC50), Post-treatment.
Another data set relates to MDCK cells. In words: Cytotoxicity assay (EZ-Cytox) in MDCK cells. The class given is cell-based, canine. As to conditions: especially at 50μM and 100μM. Here is the method: as §1, §2, §3, §4, §5, §6, §7

For `O=c1c(O)c(-c2ccc(O)c(O)c2)oc2cc(O)cc(O)c12` [Quercetin, quercetin], the “influenza virus-induced cell death” value in data set [1] was “apparent suppression”. The EC50 (commonly the midpoint of the concentration-response curve) in data set [2] (0.5 h, Co-treatment (0.5 hr)) amounted to 106 µM; in data set [2] (1 h, Co-treatment (1 hr)), 62 µM; in data set [2] (2 h, Co-treatment (2 hr)), 43 µM; in data set [2] (48 h, Post-treatment) it was 30 µM; in data set [2] (Pre-treatment (1 hr)), 78 µM; in data set [2] (Pre-treatment (12 hr)), 85 µM. In data set [2] (Pre-treatment (24 hr)), the EC50 is 98 µM. Further, the “virus titer in HA assay (virus yield reduction)” value in data set [3] is recorded as “significantly decreased”. Besides, the CC50 (as a rule, the concentration at which the toxic effect on the cells reaches its halfway point) at 48 h in data set [4] is greater than 265 µM. Also, the selectivity ratio in data set [5] is greater than 9.
With `O=c1c(O)c(-c2ccc(O)cc2)oc2cc(O)cc(O)c12` [Kaempferol, kaempferol], in data set [1], the “influenza virus-induced cell death” value was “apparent suppression”. In data set [2] (48 h, Post-treatment), this compound came in with an EC50 of 35 µM. Besides, the “virus titer in HA assay (virus yield reduction)” value in data set [3] is on record as “significantly decreased”. Besides, the CC50 at 48 h in data set [4] was found to be 245 µM. Besides, the selectivity ratio in data set [5] was 7.
In data set [2] (48 h, Post-treatment), `O=C1C[C@@H](c2ccc(O)c(O)c2)Oc2cc(O)cc(O)c21` [Eriodictyol, eriodictyol] displayed an EC50 of 115 µM. Besides, in the data set on MDCK cells, the “cell viability of MDCK cells” value is listed as “significant decrease”. The same compound registered a CC50 at 48 h in data set [4] of 256 µM. In addition, the selectivity ratio in data set [5] was 2.
In data set [2] (48 h, Post-treatment), `COc1ccc(-c2cc(=O)c3c(O)cc(O)cc3o2)cc1O` [Diosmetin, diosmetin] had an EC50 of 124 µM.
